Results from patent US10093683B2, “Factor XIa inhibitors” (Merck Sharp & Dohme Corp., priority 2014, dated 2018).
pKi: −log10 of the molar value.

Target: human Factor XIa (Homo sapiens (Human), UniProt P03951)
Experiment: Factor XIa Assay
Type: biochemical
Settings: purified human Factor XIa 40 pM, Z-Gly-Pro-Arg-AFC 100 μM, pH 7.4; read-out: FXIa Ki
Protocol: The effectiveness of a compound of the present invention as an inhibitor of Coagulation Factor XIa can be determined using a relevant purified serine protease, and an appropriate synthetic substrate. The rate of hydrolysis of the chromogenic or fluorogenic substrate by the relevant serine protease was measured both in the absence and presence of compounds of the present invention. Assays were conducted at room temperature or at 37° C. […] A decrease in the rate of fluorescence change in the presence of inhibitor is indicative of enzyme inhibition. Such methods are known to one skilled in the art. The results of this assay are expressed as the inhibitory constant, Ki.
Factor XIa determinations were made in 50 mM HEPES buffer at pH 7.4 containing 150 mM NaCl, 5 mM CaCl2, and 0.1% PEG 8000 (polyethylene glycol; JT Baker or Fisher Scientific). Determinations were made using purified human Factor XIa at a final concentration of 40 pM (Sekisui Diagnostics) and he synthetic substrate, Z-Gly-Pro-Arg-AFC, TFA salt (Sigma #C0980) at a concentration of 100 μM.
Times required to achieve equilibration between enzyme and inhibitor were determined in control experiments. Initial velocities of product formation in the absence (Vo) or presence of inhibitor (Vi) were measured. Assuming competitive inhibition, and that unity is negligible compared Km/[S], [I]/e, and [I]/e (where [S], [I], and e respectively represent the total concentrations, of substrate, inhibitor and enzyme), the equilibrium constant (Ki) for dissociation of the inhibitor from the enzyme can be obtained from the dependence of Vo/Vi on [I] shown in the following equation.

human Factor XIa, sequence (P03951 388-625): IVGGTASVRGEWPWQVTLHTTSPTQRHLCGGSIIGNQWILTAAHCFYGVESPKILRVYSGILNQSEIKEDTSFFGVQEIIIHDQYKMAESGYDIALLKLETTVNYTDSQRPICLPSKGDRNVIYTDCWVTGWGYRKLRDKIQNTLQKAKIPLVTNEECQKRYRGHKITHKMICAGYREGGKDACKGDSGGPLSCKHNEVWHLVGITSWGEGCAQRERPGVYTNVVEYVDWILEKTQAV
human Factor XIa, sequence (P03951 19-387 partner): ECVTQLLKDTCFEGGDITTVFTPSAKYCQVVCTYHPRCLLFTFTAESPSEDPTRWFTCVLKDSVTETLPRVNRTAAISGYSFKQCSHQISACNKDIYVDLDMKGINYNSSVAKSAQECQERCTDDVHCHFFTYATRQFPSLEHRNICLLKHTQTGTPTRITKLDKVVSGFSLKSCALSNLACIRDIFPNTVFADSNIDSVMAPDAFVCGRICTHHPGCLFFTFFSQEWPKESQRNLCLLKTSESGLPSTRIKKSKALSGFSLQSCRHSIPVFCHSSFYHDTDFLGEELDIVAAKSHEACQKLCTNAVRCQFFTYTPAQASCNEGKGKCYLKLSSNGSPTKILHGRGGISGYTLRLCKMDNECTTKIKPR

Question: With `COC(=O)Nc1ccc(C(=O)N[C@@H](CC2CCC(F)(F)CC2)C(=O)N2CCC[C@@]3(C2)OC(=O)Nc2ccc(Cl)cc23)cc1` [Example 106, methyl (4-(((S)-1-((R)-6-chloro-2-oxo-1,2-dihydrospiro[benzo[d][1,3]oxazine-4,3′-piperidin]-1′-yl)-3-(4,4-difluorocyclohexyl)-1-oxopropan-2-yl)carbamoyl)phenyl)carbamate] as the molecule, how does the pKi read?
Answer: The pKi was 7.77.

Question: How did the pKi turn out when `O=C1COc2ccc(S(=O)(=O)N[C@@H](Cc3ccccc3)C(=O)N3CCC4(C3)OC(=O)Nc3ccc(Cl)cc34)cc2N1` (stereo partly drawn) [Example 282, N-((2S)-1-(6-chloro-2-oxo-1,2-dihydrospiro[benzo[d][1,3]oxazine-4,3′-pyrrolidin]-1′-yl)-1-oxo-3-phenylpropan-2-yl)-3-oxo-3,4-dihydro-2H-benzo[b][1,4]oxazine-6-sulfonamide] was run?
Answer: Its pKi is no more than 5.30.

Question: `COC(=O)Nc1ccc(C(=O)N[C@@H](Cc2ccccc2)C(=O)N2CCC3(C2)NC(=O)Nc2ccc(Cl)cc23)cc1` (single isomer, unassigned) [Example 19a] was tested. Which pKi did it give?
Answer: The pKi was 5.30.

Question: With `COC(=O)Nc1ccc(C(=O)N[C@H](C(=O)N2CCC3(C2)OC(=O)Nc2ccc(Cl)cc23)[C@H](C)c2ccccc2)cc1` (stereo partly drawn) [Example 33, methyl (4-(((2S,3R)-1-(6-chloro-2-oxo-1,2-dihydrospiro[benzo[d][1,3]oxazine-4,3′-pyrrolidin]-1′-yl)-1-oxo-3-phenylbutan-2-yl)carbamoyl)phenyl)carbamate] as the molecule, how does the pKi read?
Answer: The pKi was 5.37.

Question: How did the pKi turn out when `COC(=O)Nc1ccc(C(=O)N[C@@H](CCC(F)(F)F)C(=O)N2CCC[C@@]3(C2)OC(=O)Nc2ccc(Cl)c(F)c23)cc1` [Example 36, methyl (4-(((S)-1-((R)-6-chloro-5-fluoro-2-oxo-1,2-dihydrospiro[benzo[d][1,3]oxazine-4,3′-piperidin]-1′-yl)-5,5,5-trifluoro-1-oxopentan-2-yl)carbamoyl)phenyl)carbamate] was run?
Answer: Its pKi is 7.07.

Question: `COC(=O)Nc1ccc(C(=O)N[C@@H](CC(=O)NS(=O)(=O)C2CC2)C(=O)N2CC[C@@]3(C2)OC(=O)Nc2ccc(Cl)cc23)cc1` [Example 92, methyl (4-(((S)-1-((R)-6-chloro-2-oxo-1,2-dihydrospiro[benzo[d][1,3]oxazine-4,3′-pyrrolidin]-1′-yl)-4-(cyclopropanesulfonamido)-1,4-dioxobutan-2-yl)carbamoyl)phenyl)carbamate] was tested. Which pKi did it give?
Answer: Its pKi is 7.25.

Question: `COC(=O)Nc1ccc(C(=O)N[C@@H](CCF)C(=O)N2CCC[C@@]3(C2)OC(=O)Nc2ccc(Cl)cc23)cc1` [Example 103, methyl (4-(((S)-1-((R)-6-chloro-2-oxo-1,2-dihydrospiro[benzo[d][1,3]oxazine-4,3′-piperidin]-1′-yl)-4-fluoro-1-oxobutan-2-yl)carbamoyl)phenyl)carbamate] was tested. Which pKi did it give?
Answer: Its pKi is 7.28.

Question: How did the pKi turn out when `COC(=O)Nc1ccc(C(=O)N[C@@H](CC(=O)N2CCOCC2)C(=O)N2CC[C@@]3(C2)OC(=O)Nc2ccc(Cl)cc23)cc1` [Example 88, methyl (4-(((S)-1-((R)-6-chloro-2-oxo-1,2-dihydrospiro[benzo[d][1,3]oxazine-4,3′-pyrrolidin]-1′-yl)-4-morpholino-1,4-dioxobutan-2-yl)carbamoyl)phenyl)carbamate] was run?
Answer: Its pKi is 7.70.

Question: `COC(=O)Nc1ccc(C(=O)N[C@@H](CC(=O)Nc2ccccn2)C(=O)N2CC[C@@]3(C2)OC(=O)Nc2ccc(Cl)cc23)cc1` [Example 90, methyl (4-(((S)-1-((R)-6-chloro-2-oxo-1,2-dihydrospiro[benzo[d][1,3]oxazine-4,3′-pyrrolidin]-1′-yl)-1,4-dioxo-4-(pyridin-2-ylamino)butan-2-yl)carbamoyl)phenyl)carbamate] was tested. Which pKi did it give?
Answer: The pKi was 7.24.

Question: `COC(=O)Nc1ccc(C(=O)N[C@@](C)(Cc2ccccc2)C(=O)N2CCC3(C2)OC(=O)Nc2ccc(Cl)cc23)cc1` (stereo partly drawn) [Example 24, methyl (4-(((2S)-1-(6-chloro-2-oxo-1,2-dihydrospiro[benzo[d][1,3]oxazine-4,3′-pyrrolidin]-1′-yl)-2-methyl-1-oxo-3-phenylpropan-2-yl)carbamoyl)phenyl)carbamate] was tested. Which pKi did it give?
Answer: The pKi was no more than 5.30.

Question: How did the pKi turn out when `COC(=O)Nc1ccc(-c2c[nH]c([C@H](Cc3ccccc3)C(=O)N3CC[C@@]4(C3)OC(=O)Nc3ccc(Cl)cc34)n2)cc1` [Example 122d, methyl (4-(2-((S)-1-((R)-6-chloro-2-oxo-1,2-dihydrospiro[benzo[d][1,3]oxazine-4,3′-pyrrolidin]-1′-yl)-1-oxo-3-phenylpropan-2-yl)-1H-imidazol-4-yl)phenyl)carbamate] was run?
Answer: Its pKi is 6.44.

Question: How did the pKi turn out when `COC(=O)Nc1ccc(C(=O)N[C@@H](CCNC(=O)C2CCC2)C(=O)N2CCC[C@@]3(C2)OC(=O)Nc2ccc(Cl)cc23)cc1` [Example 107, methyl (4-(((S)-1-((R)-6-chloro-2-oxo-1,2-dihydrospiro[benzo[d][1,3]oxazine-4,3′-piperidin]-1′-yl)-4-(cyclobutanecarboxamido)-1-oxobutan-2-yl)carbamoyl)phenyl)carbamate] was run?
Answer: Its pKi is 7.29.

Question: With `O=C(NCc1cccc(C(=O)O)c1)N[C@@H](Cc1ccccc1)C(=O)N1CCC2(C1)OC(=O)Nc1ccc(Cl)cc12` (stereo partly drawn) [Example 279, 3-((3-((2S)-1-(6-chloro-2-oxo-1,2-dihydrospiro[benzo[d][1,3]oxazine-4,3′-pyrrolidin]-1′-yl)-1-oxo-3-phenylpropan-2-yl)ureido)methyl)benzoic acid] as the molecule, how does the pKi read?
Answer: The pKi was 5.30.

Question: `COC(=O)Nc1ccc(C(=O)N[C@@H](Cc2ccccc2)C(=O)N2CCC[C@@]3(C2)OC(=O)Nc2ccc(C4CC4)c(F)c23)cc1` [Example 17, methyl (4-(((S)-1-((R)-6-cyclopropyl-5-fluoro-2-oxo-1,2-dihydrospiro[benzo[d][1,3]oxazine-4,3′-piperidin]-1′-yl)-1-oxo-3-phenylpropan-2-yl)carbamoyl)phenyl)carbamate] was tested. Which pKi did it give?
Answer: Its pKi is 7.43.

Question: How did the pKi turn out when `COC(=O)Nc1ccc(C(=O)N[C@@H](CC2CC2)C(=O)N2CC[C@@]3(C2)OC(=O)Nc2ccc(Cl)cc23)cc1` [Example 21b, methyl (4-(((S)-1-((R)-6-chloro-2-oxo-1,2-dihydrospiro[benzo[d][1,3]oxazine-4,3′-pyrrolidin]-1′-yl)-3-cyclopropyl-1-oxopropan-2-yl)carbamoyl)phenyl)carbamate] was run?
Answer: The pKi was 7.51.

Question: With `COC(=O)Nc1ccc(C(=O)NC[C@@H](Cc2ccccc2)C(=O)N2CCC3(C2)OC(=O)Nc2ccc(Cl)cc23)cc1` (stereo partly drawn) [Example 41, methyl (4-(((2R)-2-benzyl-3-(6-chloro-2-oxo-1,2-dihydrospiro[benzo[d][1,3]oxazine-4,3′-pyrrolidin]-1′-yl)-3-oxopropyl)carbamoyl)phenyl)carbamate] as the molecule, how does the pKi read?
Answer: Its pKi is less than 5.30.

Same assay, conditions: read-out: FXIa Ki

Question: How did the pKi turn out when `O=C1Nc2ccc(Cl)cc2C2(CCN(C(=O)[C@H](Cc3ccccc3)NC(=O)c3ccc4c(c3)S(=O)(=O)N=CN4)C2)O1` (stereo partly shown) [Example 263] was run?
Answer: The pKi was 5.70.

Question: With `O=C1Nc2ccc(Cl)cc2C2(CCN(C(=O)[C@H](Cc3ccccc3)NC(=O)c3ccnc(O)c3)C2)O1` (stereo partly shown) [Example 155] as the molecule, how does the pKi read?
Answer: Its pKi is 6.77.

Question: `O=C1Nc2ccc(Cl)cc2C2(CCN(C(=O)[C@H](Cc3ccccc3)NC(=O)C3CCC(CO)CC3)C2)O1` (stereo partly shown) [Example 157] was tested. Which pKi did it give?
Answer: Its pKi is 5.47.

Question: With `COC(=O)NC12CCC(C(=O)N[C@@H](Cc3ccccc3)C(=O)N3CCC[C@@]4(C3)OC(=O)Nc3ccc(Cl)c(F)c34)(CC1)CC2` [Example 243] as the molecule, how does the pKi read?
Answer: The pKi was 7.02.

Question: With `COC(=O)NC12CC(C(=O)N[C@@H](Cc3ccccc3)C(=O)N3CCC[C@@]4(C3)OC(=O)Nc3ccc(Cl)c(F)c34)(C1)C2` [Example 238] as the molecule, how does the pKi read?
Answer: Its pKi is 6.98.

Question: How did the pKi turn out when `O=C1Nc2ccc(Cl)c(F)c2[C@@]2(CCCN(C(=O)[C@H](Cc3ccccc3)NC(=O)c3ccc(=O)[nH]c3)C2)O1` [Example 246] was run?
Answer: The pKi was 7.11.
